Results taken from PMC9144807, “Fluorine-18 Labeled Urea-Based Ligands Targeting Prostate-Specific Membrane Antigen (PSMA) with Increased Tumor and Decreased Renal Uptake” (Pharmaceuticals, 2022).
Several values for one entry are separate records, joined by “and”; a condition that tells them apart may be missing. Equal values may be shown once. Read-outs that look alike come from different tables or passages of the source.

Assays:
PSMA [1] = target: T1, PSMA (Homo sapiens, UniProt Q04609); assay: In vitro competition binding assay with [18F]DCFPyL as radioligand, PC3(+) tumor membrane preparations
T1 construct: expressed in transfected cells; host or cells: PC3(+) (PC3 human prostate cancer cells transfected with human PSMA), grown as xenograft tumors in athymic mice; tumor membrane preparations

PC3(−) xenografts = assay: In vivo biodistribution in PC3(−) xenograft mice (negative control); details: 60 min; mean ± SE, n = 8–10
Experimental: (§1) PC3(−) (wildtype human prostate cancer cell line, PSMA negative) and PC3(+) (transfected with human PSMA) were provided by Dr. Hisataka Kobayashi. Cell lines were grown at 37 °C in 5% CO2 in RPMI-1640 supplemented with 10% FBS, 2 mM L-glutamine and Pen/Strep/Amphotericin B. PC3(+) and PC3(−) cell suspensions [2 × 10^6 cells; PBS:Matrigel (70:30)] from in vitro cell culture were subcutaneously implanted (right shoulder) into athymic mice (Athymic NCr- nu/nu, Charles River Laboratory, 4 weeks old) for use as positive and negative controls, respectively, for in vitro or in vivo studies. When tumors reached the appropriate size (>100 mg) the xenograft mice were used for in vivo biodistributions and imaging studies or the tumors were excised and further processed to obtain membrane preparations for in vitro assays as described previously.
(§2) Tumor-bearing mice (tumor weights: 0.1–0.8 g) were injected while awake via the tail vein with each of the tracers [0.74–3.7 MBq (20 to 100 µCi), 10 to 80 pmol] and euthanized (via CO2 inhalation) at selected times. […] Blood samples and tissues were excised from each animal, weighed, and radioactivity content was determined (Perkin Elmer 2480 Wizard3). Radioactivity content in the blood and each tissue was expressed as % injected dose per gram of tissue [%ID/g; (Formula (1))] and then normalized for body weight to a 20 g mouse (Formula (2)) from which Tissue:Muscle ratios [T:M; (Formula (3))] were determined as follows:(1) %ID/g =[counts per minute cpmtissue / tissue weight g]×100/cpmtotal injected dose
(§3) %ID/g (normalized to a 20 g mouse) = (%ID/g) × (body weight/20 g)(2)
(§4) (3) T:M=%ID/gtissue/%ID/gmuscle

[2] = Fraction of intact tracer (parent) in blood and kidney by TLC; assay type: in vivo, mice; details: for %Parent compound in blood (TLC analysis): 60 min; for tissue uptake at 0.25 h: 15 min post-injection; for tissue uptake at 0.5 h: 30 min post-injection; for tissue uptake at 2 h: 120 min post-injection
From the text: In some cases, additional blood samples and/or tissue samples after gamma counting were taken for determining the fraction of intact radiolabeled tracer (parent) using thin-layer chromatography (TLC). For these TLC determinations: tissues were placed in equal volumes of acetonitrile and homogenized, or serum was obtained from the blood samples and mixed with an equal volume of acetonitrile. Following centrifugation of the samples, supernatants were collected and the radioactive content of the supernatants and pellets were determined. The supernatants were then applied to thin-layer chromatography (TLC) plates. The TLC plates were developed [solvent system: ethyl acetate (80%), methanol (10%) and acetic acid (10%)], and exposed on a phosphorimaging plate which was scanned the next day.

PC3(+) xenografts [3] = assay: In vivo biodistribution in PC3(+) xenograft mice; parameters: key to salivary gland T:M / Femur T:M / Blood T:M / Kidney T:M / Liver T:M: T:M = (%ID/g in tissue) / (%ID/g in muscle); details: for Radioactivity in the blood: 60 min (Figure 5A)
Experimental: as §1, §2, §3, §4

PSMA [4] = target: T1, PSMA; assay: In vitro saturation binding assay with PC3(+) tumor membrane preparations; details: saturation assays, mean (SE), n = 3–5
Experimental: as §1
In vitro saturation studies were performed to determine binding affinities (Kd) and PSMA expression levels (Bmax) using tumor membrane preparations from PC3(−) and PC3(+) PSMA xenografts (human prostate cancer cell line transfected with human PSMA; PC3(+)). […] Filter papers were collected, and the radioactive content was quantified by gamma counting (PerkinElmer 2480 Wizard3). […] Aliquots of each membrane preparation were taken for the determination of the protein concentration (Bradford method).

PC3(+) xenografts [5] = assay: Blocking biodistribution study in PC3(+) xenografts, coinjection of non-radioactive DCFPyL; assay type: in vivo, mice; details: 60 min, coinjection of DCFPyL 1000×
Experimental: as §2, §3, §4

[6] = system: PC3(+) tumor xenograft mice; assay: Small animal PET imaging with ROI analysis, PC3(+) tumor xenograft mice; assay type: in vivo; details: 60 min post-injection
Experimental: Tumor-bearing mice were anesthetized with isoflurane/O2 (1.5–3% v/v) and imaged at various times after intravenous injection of each tracer [2.6 to 3.7 MBq (70 to 100 µCi)]. Whole body static PET images were obtained at 2 bed positions (FOV = 2.0 cm, total imaging time: 10 min) using a BioPET scanner (Bioscan Inc., Washington, DC, USA). The images were reconstructed by a 3-dimensional ordered-subsets expectation maximum (3D-OSEM).

[7] = mouse, blood, intravenous, mean ± SE, read-out: Blood uptake, parent (corrected for metabolites)
[8] = mouse, kidney, intravenous, mean ± SE, read-out: Kidney uptake, parent (corrected for metabolites)
[9] = 15 min post-injection, mean ± SE
[10] = 30 min post-injection, mean ± SE
[11] = 60 min post-injection, mean ± SE
[12] = 120 min post-injection, mean ± SE

T1 sequence (Q04609 whole entry): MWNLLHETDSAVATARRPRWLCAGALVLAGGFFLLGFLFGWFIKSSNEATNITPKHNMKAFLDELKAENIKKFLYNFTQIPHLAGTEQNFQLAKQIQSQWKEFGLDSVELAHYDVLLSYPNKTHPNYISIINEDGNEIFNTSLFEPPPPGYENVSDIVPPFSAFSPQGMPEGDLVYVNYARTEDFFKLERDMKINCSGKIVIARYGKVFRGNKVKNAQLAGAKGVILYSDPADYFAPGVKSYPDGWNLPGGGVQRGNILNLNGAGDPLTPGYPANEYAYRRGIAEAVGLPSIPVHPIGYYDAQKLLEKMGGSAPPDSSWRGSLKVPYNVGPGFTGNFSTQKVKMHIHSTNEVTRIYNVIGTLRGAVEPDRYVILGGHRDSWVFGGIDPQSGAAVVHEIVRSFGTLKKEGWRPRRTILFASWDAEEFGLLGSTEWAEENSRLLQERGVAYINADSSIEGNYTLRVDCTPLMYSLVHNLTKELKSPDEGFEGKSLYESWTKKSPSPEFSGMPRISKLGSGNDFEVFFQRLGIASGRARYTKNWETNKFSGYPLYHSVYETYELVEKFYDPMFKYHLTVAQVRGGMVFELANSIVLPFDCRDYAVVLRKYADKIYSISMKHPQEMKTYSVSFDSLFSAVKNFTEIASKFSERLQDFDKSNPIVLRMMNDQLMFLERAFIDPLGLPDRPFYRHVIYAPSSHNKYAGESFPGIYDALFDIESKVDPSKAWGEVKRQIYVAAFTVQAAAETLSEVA

Structure (SMILES): O=C(O)CC[C@H](NC(=O)N[C@@H](CCCCNC(=O)CO/N=C\c1ccc(F)cc1)C(=O)O)C(=O)O [1a, (((S)-5-(2-(aminooxy)acetamido)-1-carboxypentyl)carbamoyl)-L-glutamic acid 4-fluorobenzaldehyde oxime, reference compound]
- Ki (PSMA [1]): 101 pM

Structure (SMILES): O=C(O)CC[C@H](NC(=O)N[C@@H](CCCCNC(=O)CO/N=C\c1ccc(F)nc1)C(=O)O)C(=O)O [1b, (((S)-5-(2-(aminooxy)acetamido)-1-carboxypentyl)carbamoyl)-L-glutamic acid 6-fluoronicotinaldehyde oxime]
- Ki (PSMA [1]): 312 pM

Structure (SMILES): O=C(O)CC[C@H](NC(=O)N[C@@H](CCCCNC(=O)CCCCCO/N=C\c1ccc(F)cc1)C(=O)O)C(=O)O [2a, (((. S)-5-(6-(Aminooxy)hexanamido)-1-carboxypentyl)carbamoyl)-L-glutamic acid 4-fluorobenzaldehyde oxime]
- Ki (PSMA [1]): 621 pM

Structure (SMILES): O=C(O)CC[C@H](NC(=O)N[C@@H](CCCCNC(=O)CCCCCO/N=C\c1ccc(F)nc1)C(=O)O)C(=O)O [2b, (((. S)-5-(6-(Aminooxy)hexanamido)-1-carboxypentyl)carbamoyl)-L-glutamic acid 6-fluoronicotinaldehyde oxime]
- Ki (PSMA [1]): 901 pM

Structure (SMILES): O=C(O)CC[C@H](NC(=O)N[C@@H](CCCCNC(=O)CO/N=C\c1ccc([18F])nc1)C(=O)O)C(=O)O [[^18F]1b]
- PC3(−) Tumor T:M (PC3(−) xenografts): 1.43 ± 0.29
- %Parent compound in blood (TLC analysis) ([2]; mean ± SD, n = 2–5): 74.4 ± 7.6%
- decrease of blood radioactivity compared to [18F]DCFPyL (PC3(+) xenografts [3]; 60 min): 40%
- increase of PC3(+) tumor T:M compared to [18F]DCFPyL (PC3(+) xenografts [3]; 60 min): 1.6 fold
- increase of kidney T:M compared to [18F]DCFPyL (PC3(+) xenografts [3]; 60 min): 1.4 fold
- Radioactivity in the blood (PC3(+) xenografts [3]): 0.309 %ID/g
- Blood T:M (PC3(+) xenografts [3]; 60 min, mean ± SE, n = 8–10): 2.26 ± 0.22
- Femur T:M (PC3(+) xenografts [3]; 60 min, mean ± SE, n = 8–10): 1.80 ± 0.17
- Kidney T:M (PC3(+) xenografts [3]; 60 min, mean ± SE, n = 8–10): 1013 ± 34
- Liver T:M (PC3(+) xenografts [3]; 60 min, mean ± SE, n = 8–10): 24.9 ± 2.0
- PC3(+) Tumor T:M (PC3(+) xenografts [3]; 60 min, mean ± SE, n = 8–10): 204 and 203.7 ± 34.5
- Kd (PSMA [4]): 458 pM

Structure (SMILES): O=C(O)CC[C@H](NC(=O)N[C@@H](CCCCNC(=O)CCCCCO/N=C\c1ccc([18F])cc1)C(=O)O)C(=O)O [[^18F]2a]
- PC3(−) Tumor T:M (PC3(−) xenografts): 1.42 ± 0.13
- decrease of PC3(+) tumor T:M in blocked group compared to non-blocked group (PC3(+) xenografts [5]): 48%
- %Parent compound in blood (TLC analysis) ([2]; mean ± SD, n = 2–5): 84.8 ± 0.6%
- increase of parent kidney uptake compared to [18F]DCFPyL ([2]; 120 min): 4 fold
- tissue uptake at 0.25 h [2, 7]: 4.1 ± 0.49 %ID/g
- tissue uptake at 0.5 h [2, 7]: 2.08 ± 0.15 %ID/g
- tissue uptake at 2 h [2, 7]: 0.31 ± 0.03 %ID/g
- tissue uptake at 0.25 h [2, 8]: 11.8 ± 0.64 %ID/g
- tissue uptake at 0.5 h [2, 8]: 22.7 ± 1.73 %ID/g
- tissue uptake at 1 h ([2]; mouse, kidney, intravenous, 60 min post-injection, mean ± SE, read-out: Kidney uptake, parent (corrected for metabolites)): 15.6 ± 1.19 %ID/g
- tissue uptake at 2 h [2, 8]: 13 ± 0.98 %ID/g
- % of parent in blood ([2]; nude, mouse, in vivo): 85-83
- % of parent in kidney ([2]; nude, mouse, in vivo): 29-15
- %Parent compound in blood (TLC analysis) ([2]; nude, mouse, in vivo): 85%
- PC3(+) tumor uptake from ROI analysis of PET images [6]: 14 %ID/g
- increase of liver uptake compared to [18F]DCFPyL (PET ROI) [6]: ~ 10 fold
- kidney uptake from ROI analysis of PET images [6]: 98 %ID/g
- liver uptake from ROI analysis of PET images [6]: 29 %ID/g
- reduction of kidney uptake compared to [18F]DCFPyL (PET ROI) [6]: ~ 50%
- Blood uptake, total radioactivity (PC3(+) xenografts [3]; [9]): 4.83 ± 0.57 %ID/g
- Kidney uptake, total radioactivity (PC3(+) xenografts [3]; [9]): 62.2 ± 3.4 %ID/g
- Blood uptake, total radioactivity (PC3(+) xenografts [3]; [10]): 2.47 ± 0.18 %ID/g
- Kidney uptake, total radioactivity (PC3(+) xenografts [3]; [10]): 78.4 ± 9.1 %ID/g
- decrease of PC3(+) tumor T:M compared to [18F]DCFPyL (PC3(+) xenografts [3]; 60 min): 40%
- increase of blood radioactivity vs. [18F]DCFPyL (PC3(+) xenografts [3]; 60 min): 1.6 fold
- increase of liver T:M compared to [18F]DCFPyL (PC3(+) xenografts [3]; 60 min): 6.8 fold
- decrease of kidney T:M compared to [18F]DCFPyL (PC3(+) xenografts [3]; 60 min, p < 0.0001): 55%
- Blood T:M (PC3(+) xenografts [3]; 60 min, mean ± SE, n = 8–10): 2.85 ± 0.15
- Femur T:M (PC3(+) xenografts [3]; 60 min, mean ± SE, n = 8–10): 0.73 ± 0.04
- Kidney T:M (PC3(+) xenografts [3]; 60 min, mean ± SE, n = 8–10): 314.8 ± 8.3
- Liver T:M (PC3(+) xenografts [3]; 60 min, mean ± SE, n = 8–10): 66.9 ± 4.2
- PC3(+) Tumor T:M (PC3(+) xenografts [3]; 60 min, mean ± SE, n = 8–10): 74 and 73.9 ± 5.8
- Blood uptake, total radioactivity (PC3(+) xenografts [3]; [11]): 0.77 ± 0.10 %ID/g
- Kidney uptake, total radioactivity (PC3(+) xenografts [3]; [11]): 75.8 ± 6.3 %ID/g
- Blood uptake, total radioactivity (PC3(+) xenografts [3]; [12]): 0.37 ± 0.03 %ID/g
- Kidney uptake, total radioactivity (PC3(+) xenografts [3]; [12]): 87.8 ± 5.1 %ID/g
- Femur uptake (PC3(+) xenografts [3]; all times 15 to 120 min): < 1 %ID/g
- Femur T:M (PC3(+) xenografts [3]; all times except 120 min): < 1.8
- decrease of tumor T:M compared to [18F]DCFPyL tumor T:M (PC3(+) xenografts [3]; at 30 and 60 min): ~ 2 fold
- increase in tumor T:M from 15 to 120 min (PC3(+) xenografts [3]; mouse, in vivo): ~ 14 fold
- increase of tumor retention (%ID/g) from 15 to 120 min (PC3(+) xenografts [3]; mouse, in vivo): 1.4 fold
- Kd (PSMA [4]): 362 pM

Structure (SMILES): O=C(O)CC[C@H](NC(=O)N[C@@H](CCCCNC(=O)CCCCCO/N=C\c1ccc([18F])nc1)C(=O)O)C(=O)O [[^18F]2b]
- PC3(−) Tumor T:M (PC3(−) xenografts): 1.65 ± 0.20
- decrease of PC3(+) tumor T:M in blocked group compared to non-blocked group (PC3(+) xenografts [5]): 85%
- %Parent compound in blood (TLC analysis) ([2]; mean ± SD, n = 2–5): 78.8 ± 2.6%
- decrease of PC3(+) tumor T:M compared to [18F]DCFPyL (PC3(+) xenografts [3]; 60 min): 27%
- decrease of blood radioactivity compared to [18F]DCFPyL (PC3(+) xenografts [3]; 60 min): 27%
- Radioactivity in the blood (PC3(+) xenografts [3]): 0.377 %ID/g
- Blood T:M (PC3(+) xenografts [3]; 60 min, mean ± SE, n = 8–10): 2.04 ± 0.11
- Femur T:M (PC3(+) xenografts [3]; 60 min, mean ± SE, n = 8–10): 2.00 ± 0.18
- Kidney T:M (PC3(+) xenografts [3]; 60 min, mean ± SE, n = 8–10): 814.2 ± 71.9
- Liver T:M (PC3(+) xenografts [3]; 60 min, mean ± SE, n = 8–10): 44.6 ± 3.8
- PC3(+) Tumor T:M (PC3(+) xenografts [3]; 60 min, mean ± SE, n = 8–10): 90 and 89.9 ± 7.6
- Kd (PSMA [4]): 489 pM
